{"source": "patent US20230416247A1", "about": "“DRUG-LIKE MOLECULES AND METHODS FOR THE THERAPEUTIC TARGETING OF MICRORNA-21” (University of Washington, priority 2020, published 2023)", "test_system": "mature miR-10b in AGS cells", "test": "qRT-PCR of mature miR-10b in AGS cells", "type": "cell-based, human", "conditions": "10 nmoles, 48 hours, relative to DMSO control", "experimental": "FIGS. 14A-14D compare levels of mature miR-10b and pre-miR-10b measured in gastric adenocarcinoma (AGS) (FIGS. 14A and 14B, respectively) and pancreatic cancer cell line (ASPC 1) (FIGS. 14C and 14D, respectively), normalized to internal controls (U6 or U8 snRNA), in the presence of 10 nmoles of palbociclib (a negative control not expected to directly affect miRNA levels) and compounds −0045 and −0052, 48 hours after incubation, relative to DMSO control, and measured by standard qRT-PCR. We notice that levels of pre-miR-10b are very low in both cell lines, rendering the data very uncertain. Statistically significant changes are labeled with asterisks.\nIn order to investigate whether inhibition was specific to miR-21, levels of mature miR-10b and pre-miR-10b were examined in the same cell lines (FIGS. 14A-14D); this is another oncogenic microRNA implicated in metastasis. […]\nQuantitative real time PCR analysis. […] RNA concentration was assessed with the NanoDrop ND-1000 spectrophotometer (ThermoFisher Scientific). […] Expression of miR-21 was assessed utilizing the TaqMan microRNA assay (Applied Biosystems). […] All experiments were performed in triplicate, with all samples normalized to the internal controls and relative expression levels calculated using the 2^ΔΔCt method."}
{"smiles": "O=c1[nH]c(Nc2ccc(N3CCNCC3)cn2)nc2cnccc12", "note": "[Compound 30]", "values": [{"measurement": "reduction of levels of mature miR-10b", "value": "about 2 fold"}]}
